Experimental data as given in patent US3968100A, “Guanidio derivatives of kasugamycin and their production” (Zaidan Hojin Biseibutsu Kagaku Kenkyu Kai, priority 1972, dated 1976).
≈ marks a conversion by molar mass, not a printed value. Like-named read-outs stand apart in the source and are kept apart here.

Experiments:
Escherichia coli K-12 = experiment: antibacterial spectrum by the broth dilution method (MIC); format: cell-based; details: K12; Escherichia coli K-12, broth dilution; read-out: Minimum inhibitory concentration
Method: (§1) The antibacterial spectrum of the new guanidino derivatives of kasugamycin was determined by the broth dilution method and shown in Table 2 below.

[1] = test system: Klebsiella pneumoniae ATCC 10031; experiment: as above; format: cell-based; details: ATCC10031; Klebsiella pneumoniae ATCC 10031, broth dilution; read-out: Minimum inhibitory concentration
Method: as §1

Proteus vulgaris OX 19 = experiment: as above; format: cell-based; details: OX19; Proteus vulgaris OX 19, broth dilution; read-out: Minimum inhibitory concentration
Method: as §1

Salmonella paratyphi A = experiment: as above; format: cell-based; details: Salmonella enterica, read-out: Minimum inhibitory concentration
Method: as §1

[2] = test system: Pseudomonas fluorescence NIHJB-24; experiment: as above; format: cell-based
Method: as §1

[3] = test system: Staphylococcus aureus 6538P; experiment: as above; format: cell-based; details: read-out: Minimum inhibitory concentration
Method: as §1

Shigella sonnei 191-66 = experiment: as above; format: cell-based; details: 19166; Shigella sonnei 191-66, broth dilution; read-out: Minimum inhibitory concentration
Method: as §1

Escherichia coli NIHJ = experiment: as above; format: cell-based; details: read-out: Minimum inhibitory concentration
Method: as §1

[4] = test system: Bacillus subtilis ATCC 6633; experiment: as above; format: cell-based; details: ATCC6633; Bacillus subtilis ATCC 6633, broth dilution; read-out: Minimum inhibitory concentration
Method: as §1

mice = experiment: acute toxicity to mice injected intravenously; format: in vivo; details: 350 mg/kg intravenously, five mice
Text: (§2) The process of Example 3 was repeated using propylenediamine and butylenediamine, respectively in stead of the ethylenediamine. There were obtained 1D-3-O-{2-amino-4-[(2-aminopropyl)-guanidinol]-2,3,4,6-tetradeoxy-α- D-arabino-hexopyranosyl}-chiro-inositol and 1D-3-O-{2-amino-4-[(2-aminobutyl)-guanidinol]-2,3,4,6-tetradeoxy-α-D-arabino-hexopyranosyl]-chiro-inositol in yields of 31.2% and24.6%, respectively.

[5] = test system: Pseudomonas aeruginosa No. 12; experiment: protection test against infection in mice of Pseudomonas aeruginosa; format: in vivo, mice (dd strain) infected with Pseudomonas aeruginosa No. 12; details: for ED50: Pseudomonas aeruginosa, NO.12, ip, read-out: curative dose (CD50)
Method: The inoculum size of Pesudomonas aeruginosa No.12, which was 10 times of LD50 (3.1 × 10^8 cells/ml, 0.25 ml/mouse), was inoculated intraperitoneally to dd strain of mice (19-21 g body weight), and the treatment with the aforesaid kasugamycin-KG-8 was intraperitoneally injected at 0 and 6 hours after the infection.

chicks = experiment: growth promoting effect on chicks; format: in vivo, chicks of broiler type (White Rock × White Cornish); parameters: Weight gain: unit not given here; details: 10 g/ton in ration; for Index of weight gain: control = 100
Method: Growth promoting effect of kasugamycin-KG-8 on chicks is tested below. Kasugamycin-KG-8 was mixed uniformly with ration and administered to chicks to examine its effect on growth promotion and improvement of feed utilization. Eighty chicks of broiler type (White Rock × White Cornish) were assigned to two lots of 40 chicks each and for 8 weeks. Lot 1 (Control): Supplied only with basal ration. Lot 2: Supplied with basal ration + kasugamycin-KG-8 10 g/ton. As the basal ration was used one of standard composition. Chick rearing was managed according to the usual method. Ration and drinking water were supplied ad libitum. Tabel 5 indicates beneficial effect of kasugamycin-KG-8 on chick growth promotion.

[6] = test system: Pseudomonas fluorescens NIHJ B-254; experiment: activity of eluted fractions against test organism; format: cell-based; details: purified white powder
Method: The isourea derivative dihydrochloride of kasugamycin (500 mg) prepared in Example 2 was dissolved into 10% ethylenediamine in methanol (w/w). The solution was allowed to stand at room temperature for 24 hours, diluted with 80 ml of isopropanol and concentrated to one-half volume under reduced pressure. The solid deposited by concentration was filtered, washed with ethyl ether and dried to give 457 mg of a crude guanidino derivative of kasugamycin as a white powder. The crude powder was dissolved in 4.5 ml of water and adsorbed on a column containing 12 ml of a cation-exchange resin Amberlite IRC-50(NH4 -type). The column was washed with water and followed with 0.3N NH4 OH, and developed with 0.3N H2 SO4. The activities of each eluted fraction were determined using Pseudomonas fluorescens NIHJ B-254 as a test organism. […] And the product formed crystals as the salt of p-hydroxyazobenzene-p'-sulfonic acid.

swine = experiment: growth promoting effect on swine; format: in vivo; details: pigs, 10 g/ton in ration, 7 weeks
Text: Growth promoting effect of kasugamycin-KG-8 on swine is described below. Kasugamycin-KG-8 was mixed uniformly with ration and administered to pigs to examine its effect on growth promotion and improvement of feed utilization. Fourty-eight young pigs of 1 month old were assigned to two lots of […] pigs each and fed for 7 weeks. Lot 1 (Control): Supplied only with basal ration. Lot 2: Supplied with basal ration + kasugamycin-KG-8 10 g/ton. As the basal ration, one of standard composition was used. Swine raising was managed according to usual method. Each lot of […] pigs were fed in a concrete pen. Ration and drinking water were supplied ad libitum. The index of weight gain indicates beneficial effect of kasugamycin-KG-8 on swing growth promotion.

solubility = format: physicochemical
[7] = acute toxicity to mice injected intravenously; format: in vivo; details: mouse, in vivo, iv
Text: as §2

[8] = NIHJB24, Pseudomonas fluorescence NIHJB-24, broth dilution, read-out: Minimum inhibitory concentration

CNCCN(C)C(=N)N[C@H]1C[C@H](N)[C@@H](O[C@H]2[C@H](O)[C@@H](O)[C@@H](O)[C@H](O)[C@@H]2O)O[C@@H]1C [Compound 3]
MIC (Escherichia coli K-12): 100 µg/mL (≈ 237 µM) | MIC [1]: 100 µg/mL (≈ 237 µM) | MIC (Proteus vulgaris OX 19): 50 µg/mL (≈ 119 µM) | MIC (Salmonella paratyphi A): 50 µg/mL (≈ 119 µM) | MIC [2, 8]: 50 µg/mL (≈ 119 µM) | MIC [3]: 50 µg/mL (≈ 119 µM) | MIC (Shigella sonnei 191-66): 100 µg/mL (≈ 237 µM) | MIC (Escherichia coli NIHJ): 100 µg/mL (≈ 237 µM) | MIC [4]: 25 µg/mL (≈ 59.3 µM)

C[C@H]1O[C@H](O[C@H]2[C@H](O)[C@@H](O)[C@@H](O)[C@H](O)[C@@H]2O)[C@@H](N)C[C@@H]1NC(=N)NCCCCN [Compound 4]
MIC (Escherichia coli K-12): 1.56 µg/mL (≈ 3.7 µM) | MIC [1]: 1.56 µg/mL (≈ 3.7 µM) | MIC (Proteus vulgaris OX 19): 1.56 µg/mL (≈ 3.7 µM) | MIC (Salmonella paratyphi A): 0.78 µg/mL (≈ 1.85 µM) | MIC [2, 8]: 3.13 µg/mL (≈ 7.43 µM) | MIC [3]: 0.2 µg/mL (≈ 0.475 µM) | MIC (Shigella sonnei 191-66): 6.25 µg/mL (≈ 14.8 µM) | MIC (Escherichia coli NIHJ): 12.5 µg/mL (≈ 29.7 µM) | MIC [4]: 0.78 µg/mL (≈ 1.85 µM)

C[C@H]1O[C@H](O[C@H]2[C@H](O)[C@@H](O)[C@@H](O)[C@H](O)[C@@H]2O)[C@@H](N)C[C@@H]1NC(=N)NCCS(=O)(=O)O [Compound 8]
MIC (Escherichia coli K-12): > 100 µg/mL | MIC [1]: > 100 µg/mL | MIC (Proteus vulgaris OX 19): > 100 µg/mL | MIC (Salmonella paratyphi A): 50 µg/mL (≈ 109 µM) | MIC [2, 8]: 50 µg/mL (≈ 109 µM) | MIC [3]: 12.5 µg/mL (≈ 27.3 µM) | MIC (Shigella sonnei 191-66): > 100 µg/mL | MIC (Escherichia coli NIHJ): > 100 µg/mL | MIC [4]: 100 µg/mL (≈ 218 µM)

CC(N)CNC(=N)NC1CC(N)C(OC2C(O)C(O)C(O)C(O)C2O)OC1C [Example 4, 1D-3-O-{2-amino-4-[(2-aminopropyl)-guanidinol]-2,3,4,6-tetradeoxy-α-D-arabino-hexopyranosyl}-chiro-inositol]
deaths after intravenous injection (mice): none of them was dead

C[C@H]1O[C@H](O[C@H]2[C@H](O)[C@@H](O)[C@@H](O)[C@H](O)[C@@H]2O)[C@@H](N)C[C@@H]1NC(=N)NCCCCN [Example 5, 1D-3-O-{2-amino-4-[(2-aminobutyl)-guanidinol]-2,3,4,6-tetradeoxy-α-D-arabino-hexopyranosyl]-chiro-inositol]
deaths after intravenous injection (mice): one of them was dead

C[C@H]1O[C@H](O[C@H]2[C@H](O)[C@@H](O)[C@@H](O)[C@H](O)[C@@H]2O)[C@@H](N)C[C@@H]1NC(=N)C(=O)O [Kasugamycin]
MIC (Escherichia coli K-12): 100 µg/mL (≈ 264 µM) | MIC [1]: 50 µg/mL (≈ 132 µM) | MIC (Proteus vulgaris OX 19): 100 µg/mL (≈ 264 µM) | MIC (Salmonella paratyphi A): 50 µg/mL (≈ 132 µM) | MIC [2, 8]: 3.13 µg/mL (≈ 8.25 µM) | MIC [3]: 50 µg/mL (≈ 132 µM) | MIC (Shigella sonnei 191-66): > 100 µg/mL | MIC (Escherichia coli NIHJ): 100 µg/mL (≈ 264 µM) | MIC [4]: > 100 µg/mL | ED50 [5]: 35.5 mg/kg

C[C@H]1O[C@H](O[C@H]2[C@H](O)[C@@H](O)[C@@H](O)[C@H](O)[C@@H]2O)[C@@H](N)C[C@@H]1NC(=N)NCCCN [R1 =--(CH2)3 NH2, R2 =H]
MIC [1]: 0.2 µg/mL (≈ 0.491 µM) | MIC (Escherichia coli NIHJ): 0.39 µg/mL (≈ 0.957 µM)

C[C@H]1O[C@H](O[C@H]2[C@H](O)[C@@H](O)[C@@H](O)[C@H](O)[C@@H]2O)[C@@H](N)C[C@@H]1NC(=N)NCCN [kasugamycin-KG-8, 1D-3-O-{2-amino-4-[(2-aminoethyl)-guanidino]-2,3,4,6-tetradeoxy-α-D-arabino-hexopyranosyl}-chiro-inositol]
MIC (Escherichia coli K-12): 0.39 µg/mL (≈ 0.991 µM) | MIC [1]: 0.1 µg/mL (≈ 0.254 µM) | MIC (Proteus vulgaris OX 19): 0.78 µg/mL (≈ 1.98 µM) | MIC (Salmonella paratyphi A): 0.2 µg/mL (≈ 0.508 µM) | MIC ([2]; Pseudomonas, NIHJB24, read-out: Minimum inhibitory concentration): 1.56 µg/mL (≈ 3.97 µM) | MIC [3]: 0.78 µg/mL (≈ 1.98 µM) | MIC (Shigella sonnei 191-66): 1.56 µg/mL (≈ 3.97 µM) | MIC (Escherichia coli NIHJ): 0.78 µg/mL (≈ 1.98 µM) | MIC [4]: 0.39 µg/mL (≈ 0.991 µM) | Weight gain (chicks; grower period for 4 weeks, control 871.8): 957.8 | Index of weight gain (chicks; grower period for 4 weeks): 109.9 | Feed conversion (chicks; grower period, control 3.65): 3.56 | Weight gain (chicks; starter period of 4 weeks, control 458.4): 496.2 | Index of weight gain (chicks; starter period of 4 weeks): 108.2 | Feed conversion (chicks; starter period, control 2.15): 2.15 | Weight gain (chicks; total period through 8 weeks, control 1330.2): 1454.0 | Index of weight gain (chicks; total period through 8 weeks): 109.3 | Feed conversion (chicks; total period, control 3.12): 3.07 | activity relative to kasugamycin [6]: three times active than kasugamycin | Number survived/Number infected ([5]; 0.031 mg/mouse at one time, day 0 after infection): 0/4 | Number survived/Number infected ([5]; 0.031 mg/mouse at one time, day 1 after infection): 4/4 | Number survived/Number infected ([5]; 0.031 mg/mouse at one time, day 7 after infection): 4/4 | Number survived/Number infected ([5]; 0.063 mg/mouse at one time, day 0 after infection): 0/4 | Number survived/Number infected ([5]; 0.063 mg/mouse at one time, day 1 after infection): 1/4 | Number survived/Number infected ([5]; 0.063 mg/mouse at one time, day 2 after infection): 2/4 | Number survived/Number infected ([5]; 0.063 mg/mouse at one time, day 7 after infection): 2/4 | Number survived/Number infected ([5]; 0.125 mg/mouse at one time, day 0 after infection): 0/4 | Number survived/Number infected ([5]; 0.125 mg/mouse at one time, day 3 after infection): 1/4 | Number survived/Number infected ([5]; 0.125 mg/mouse at one time, day 7 after infection): 1/4 | Number survived/Number infected ([5]; 0.25 mg/mouse at one time, day 0 after infection): 0/4 | Number survived/Number infected ([5]; 0.25 mg/mouse at one time, day 7 after infection): 0/4 | Number survived/Number infected ([5]; 0.5 mg/mouse at one time, day 0 after infection): 0/4 | Number survived/Number infected ([5]; 0.5 mg/mouse at one time, day 7 after infection): 0/4 | Number survived/Number infected ([5]; 1.0 mg/mouse at one time, day 0 after infection): 0/4 | Number survived/Number infected ([5]; 1.0 mg/mouse at one time, day 7 after infection): 0/4 | Number survived/Number infected ([5]; 2.0 mg/mouse at one time, day 0 after infection): 0/4 | Number survived/Number infected ([5]; 2.0 mg/mouse at one time, day 7 after infection): 0/4 | ED50 ([5]; mice, intraperitoneal at 0 and 6 hours after infection): 3.13 mg/kg | Feed conversion (swine; control 3.05): 2.94 | Weight gain (swine; control 8.20): 9.09 kg | Index of weight gain (swine; control = 100): 110.9 | solubility (solubility; other organic solvents): scarcely soluble or insoluble in other organic solvents | solubility (solubility; water, dimethylformamide and low alcohols): soluble in water, dimethylformamide and low alcohols | LD50 [7]: 380 mg/kg
